# Literature values in patent US20080139531A1, “USE OF CONNECTIVE TISSUE MAST CELL STABILIZERS TO FACILITATE OCULAR SURFACE RE-EPITHELIZATION AND WOUND REPAIR” (ALCON MANUFACTURING LTD., priority 2006, published 2008).
# System: human conjunctival mast cells
# Conditions: qualitative statement citing Yanni et al., 1997
row,Structure (SMILES),inhibition of histamine release from human conjunctival mast cells
1,"CN(C)CCC=C1c2ccccc2COc2ccc(CC(=O)O)cc21 [olopatadine, 11-(3-dimethylaminopropylidene)-6,11-dihydrodibenz[b,e]oxepin-2-acetic acid]",inhibits histamine release
2,Cc1cccn2c(=O)c(-c3nnn[nH]3)cnc12 [pemirolast],"Unlike cromolyn and pemirolast, olopatadine inhibits histamine release"
